Measured values from patent US12655116B2, “Substituted isophthalic acid diamides” (Bayer Aktiengesellschaft, priority 2020, dated 2026).

Key:
[1] = tested on: ABUTH; assay: Pre-emergence herbicidal action against ABUTH; assay type: in vivo, Abutilon theophrasti; conditions: for Pre-emergence action against ABUTH (herbicidal activity): 80 g/ha, scored visually after 3 weeks vs untreated controls (100% = plants have died, 0% = like control plants); for Pre-emergence action against ABUTH (herbicidal activity in percent): dosage 20 g/ha, scored visually after 3 weeks vs untreated controls, 100% = plants have died, 0% = like control plants
In short: (§1)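 Sandy loam pots, seeds covered with soil, then surface-treated with WP or EC formulations at 600–800 l/ha water plus 0.2% wetting agent. Greenhouse, 3 weeks. Percent damage vs untreated controls.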

[2] = tested on: ALOMY; assay: Pre-emergence herbicidal action against ALOMY; assay type: in vivo, Alopecurus myosuroides; conditions: 80 g/ha, pre-emergence, scored visually after 3 weeks vs untreated controls (100% = plants have died, 0% = like control plants)
In short: as §1

[3] = tested on: AMARE; assay: Pre-emergence herbicidal action against AMARE; assay type: in vivo, Amaranthus retroflexus
In short: as §1

[4] = tested on: AVEFA; assay: Pre-emergence herbicidal action against AVEFA; assay type: in vivo, Avena fatua; conditions: 80 g/ha, pre-emergence
In short: as §1

[5] = tested on: MATIN; assay: Pre-emergence herbicidal action against MATIN; assay type: in vivo, Matricaria inodora
In short: as §1

[6] = tested on: PHBPU; assay: Pre-emergence herbicidal action against PHBPU; assay type: in vivo, Pharbitis purpurea; conditions: dosage 80 g/ha
In short: as §1

[7] = tested on: STEME; assay: Pre-emergence herbicidal action against STEME; assay type: in vivo, Stellaria media
In short: as §1

[8] = tested on: VERPE; assay: Pre-emergence herbicidal action against VERPE; assay type: in vivo, Veronica persica; conditions: dosage 80 g/ha
In short: as §1

[9] = tested on: VIOTR; assay: Pre-emergence herbicidal action against VIOTR; assay type: in vivo, Viola tricolor
In short: as §1

[10] = tested on: DIGSA; assay: Pre-emergence herbicidal action against DIGSA; assay type: in vivo, Digitaria sanguinalis
In short: as §1

[11] = tested on: ABUTH; assay: Post-emergence herbicidal action against ABUTH; assay type: in vivo, Abutilon theophrasti; conditions: visual assessment about 3 weeks after treatment vs untreated controls
In short: (§2)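 Visual % rating (0% = as untreated, 100% = dead) ~3 wk after spraying one-leaf-stage plants grown in sandy loam; WP/EC in water at 600–800 l/ha, 0.2% wetting agent.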

[12] = tested on: AVEFA; assay: Post-emergence herbicidal action against AVEFA; assay type: in vivo, Avena fatua; conditions: 20 g/ha, visual assessment about 3 weeks after treatment, 100% = plants have died, 0% = like control plants
In short: as §2

[13] = tested on: MATIN; assay: Post-emergence herbicidal action against MATIN; assay type: in vivo, Matricaria inodora
In short: as §2

[14] = tested on: PHBPU; assay: Post-emergence herbicidal action against PHBPU; assay type: in vivo, Pharbitis purpurea
In short: as §2

[15] = tested on: SETVI; assay: Post-emergence herbicidal action against SETVI; assay type: in vivo, Setaria viridis; conditions: dosage 20 g/ha
In short: as §2

[16] = tested on: STEME; assay: Post-emergence herbicidal action against STEME; assay type: in vivo, Stellaria media; conditions: 20 g/ha
Protocol: Seeds of monocotyledonous and dicotyledonous weed and crop plants are laid out in sandy loam soil in wood-fiber pots, covered with soil and cultivated in a greenhouse under good growth conditions. 2 to 3 weeks after sowing, the test plants are treated at the one-leaf stage. The compounds of the invention, formulated in the form of wettable powders (WP) or as emulsion concentrates (EC), are then sprayed onto the green parts of the plants in the form of an aqueous suspension or emulsion at a water application rate equivalent to 600 to 800 l/ha, with addition of 0.2% wetting agent. After the test plants have been left to stand in the greenhouse under optimal growth conditions for about 3 weeks, the action of the preparations is assessed visually in comparison to untreated controls (herbicidal action in percent (%): 100% activity=the plants have died, 0% activity=like control plants). […] The tables below illustrate, in an illustrative manner, the post-emergence herbicidal action of the compounds of the invention, the herbicidal activity being stated in percent.

[17] = tested on: VIOTR; assay: Post-emergence herbicidal action against VIOTR; assay type: in vivo, Viola tricolor
In short: as §2

[18] = tested on: DIGSA; assay: Post-emergence herbicidal action against DIGSA; assay type: in vivo, Digitaria sanguinalis; conditions: for Post-emergence action against DIGSA: 20 g/ha
In short: as §2

[19] = tested on: ECHCG; assay: Pre-emergence herbicidal action against ECHCG; assay type: in vivo, Echinochloa crus-galli; conditions: 80 g/ha
In short: as §1

[20] = tested on: POLCO; assay: Pre-emergence herbicidal action against POLCO; assay type: in vivo, Polygonum convolvulus; conditions: dosage 80 g/ha
In short: as §1

[21] = tested on: SETVI; assay: Pre-emergence herbicidal action against SETVI; assay type: in vivo, Setaria viridis; conditions: dosage 80 g/ha
In short: as §1

[22] = tested on: ALOMY; assay: Post-emergence herbicidal action against ALOMY; assay type: in vivo, Alopecurus myosuroides; conditions: dosage 20 g/ha, visual assessment about 3 weeks after treatment vs untreated controls
In short: as §2

[23] = tested on: AMARE; assay: Post-emergence herbicidal action against AMARE; assay type: in vivo, Amaranthus retroflexus; conditions: 20 g/ha, visual assessment about 3 weeks after treatment, 100% = plants have died, 0% = like control plants
In short: as §2

[24] = tested on: ECHCG; assay: Post-emergence herbicidal action against ECHCG; assay type: in vivo, Echinochloa crus-galli; conditions: dosage 20 g/ha
In short: as §2

[25] = 20 g/ha, scored visually after 3 weeks vs untreated controls, 100% = plants have died, 0% = like control plants
[26] = 80 g/ha, scored visually after 3 weeks vs untreated controls (100% = plants have died, 0% = like control plants)

## CCCn1nnnc1NC(=O)c1ccc(C(F)(F)F)c(C(=O)NC2CC2)c1C [Example 3-27]
[1]
  Pre-emergence action against ABUTH (herbicidal activity): 100%
  Pre-emergence action against ABUTH (herbicidal activity in percent): 100%
[2]
  Pre-emergence action against ALOMY (herbicidal activity): 90%
[3]; [25]
  Pre-emergence action against AMARE in %: 100%
[3]; [26]
  Pre-emergence action against AMARE in %: 100%
[4]
  Pre-emergence action against AVEFA in %: 90%
[5]; dosage 20 g/ha
  Pre-emergence action against MATIN in %: 100%
[5]; dosage 80 g/ha
  Pre-emergence action against MATIN in %: 100%
[6]
  Pre-emergence action against PHBPU in %: 90%
[7]; dosage 20 g/ha
  Pre-emergence action against STEME in %: 100%
[7]; dosage 80 g/ha
  Pre-emergence action against STEME in %: 100%
[8]
  Pre-emergence action against VERPE in %: 90%
[9]; dosage 20 g/ha
  Pre-emergence action against VIOTR in %: 90%
[9]; dosage 80 g/ha
  Pre-emergence action against VIOTR in %: 100%
[10]; dosage 80 g/ha
  Pre-emergence action against DIGSA in %: 100%
[11]; dosage 20 g/ha
  Post-emergence action against ABUTH in %: 100%
[12]
  Post-emergence action at 20 g/ha against AVEFA in %: 90%
[13]; dosage 5 g/ha
  Post-emergence action against MATIN in %: 90%
[13]; dosage 20 g/ha
  Post-emergence action against MATIN in %: 100%
[14]; dosage 5 g/ha
  Post-emergence action against PHBPU in %: 90%
[14]; dosage 20 g/ha
  Post-emergence action against PHBPU in %: 100%
[15]
  Post-emergence action against SETVI in %: 90%
[16]
  Post-emergence action against STEME in %: 80%
[17]; 5 g/ha
  Post-emergence action against VIOTR in %: 80%
[17]; 20 g/ha
  Post-emergence action against VIOTR in %: 100%
[18]
  Post-emergence action against DIGSA: 100%

## Cc1nnc(NC(=O)c2ccc(C(F)(F)F)c(C(=O)NC3CC3)c2Cl)o1 [Example 6-118]
[1]
  Pre-emergence action against ABUTH (herbicidal activity): 100%
  Pre-emergence action against ABUTH (herbicidal activity in percent): 100%
[2]
  Pre-emergence action against ALOMY (herbicidal activity): 100%
[3]; [25]
  Pre-emergence action against AMARE in %: 80%
[3]; [26]
  Pre-emergence action against AMARE in %: 100%
[4]
  Pre-emergence action against AVEFA in %: 90%
[19]
  Pre-emergence action against ECHCG in %: 100%
[5]; dosage 20 g/ha
  Pre-emergence action against MATIN in %: 90%
[5]; dosage 80 g/ha
  Pre-emergence action against MATIN in %: 100%
[20]
  Pre-emergence action against POLCO in %: 80%
[21]
  Pre-emergence action against SETVI in %: 100%
[7]; dosage 20 g/ha
  Pre-emergence action against STEME in %: 90%
[7]; dosage 80 g/ha
  Pre-emergence action against STEME in %: 100%
[9]; dosage 20 g/ha
  Pre-emergence action against VIOTR in %: 90%
[9]; dosage 80 g/ha
  Pre-emergence action against VIOTR in %: 90%
[10]; dosage 20 g/ha
  Pre-emergence action against DIGSA in %: 90%
[10]; dosage 80 g/ha
  Pre-emergence action against DIGSA in %: 100%
[11]; dosage 5 g/ha
  Post-emergence action against ABUTH in %: 80%
[11]; dosage 20 g/ha
  Post-emergence action against ABUTH in %: 90%
[22]
  Post-emergence action against ALOMY in %: 80%
[23]
  Post-emergence action at 20 g/ha against AMARE in %: 100%
[24]
  Post-emergence action against ECHCG in %: 90%
[13]; dosage 20 g/ha
  Post-emergence action against MATIN in %: 80%
[16]
  Post-emergence action against STEME in %: 100%
[17]; 20 g/ha
  Post-emergence action against VIOTR in %: 80%
[18]; 5 g/ha
  Post-emergence action against DIGSA in %: 100%
[18]
  Post-emergence action against DIGSA: 100%
